{"source": "patent US6686484B2", "about": "“Polycyclic aryl and heteroaryl substituted 1,4-quinones useful for selective inhibition of the coagulation cascade” (Pharmacia Corporation, priority 2000, dated 2004)", "assay_type_in_all_cases": "biochemical", "key": {"[1]": {"biological_target": "T1, trypsin, type IX from porcine pancreas (Sus scrofa, UniProt P00761)", "T1 construct": "purchased Sigma, St. Louis Mo; host or cells: porcine pancreas", "T1 sequence (P00761 9-231)": "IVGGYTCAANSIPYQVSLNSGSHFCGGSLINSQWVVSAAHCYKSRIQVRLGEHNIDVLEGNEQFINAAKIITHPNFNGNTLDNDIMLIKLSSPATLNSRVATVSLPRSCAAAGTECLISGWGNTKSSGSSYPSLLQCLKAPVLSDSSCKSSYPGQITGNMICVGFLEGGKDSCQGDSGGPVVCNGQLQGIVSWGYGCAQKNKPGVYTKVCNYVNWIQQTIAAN", "assay": "Trypsin Assay", "details": "substrate L-BAPNA, 60 min room temperature, OD 405 nm; read-out: Trpysin II IC50", "method": "5 ug/ml trypsin, type IX from porcine pancreas and 0.375 mM N-α-Benzoyl-L-arginine-p-nitroanilide (L-BAPNA) are added to a 96-well assay plate containing either inhibitor or buffer (50 mM Tris-HCl, pH 8.0, 100 mM NaCl, 0.1% BSA). The reactions, in a final volume of 100 ul are measured immediately at 405 nm to determine background absorbance. The plate is incubated at room temperature for 60 min, at which time the rate of hydrolysis of the substrate is measured by monitoring the reaction at 405 nm for the release of p-nitroaniline. Percent inhibition of trypsin activity is calculated from OD405nm value from the experimental and control sample.\nRecombinant soluble TF, consisting of amino acids 1-219 of the mature protein sequence was expressed in E. coli and purified using a Mono Q Sepharose FPLC. Recombinant human VIIa was purchased from American Diagnostica, Greenwich Conn. and chromogenic substrate N-Methylsulfonyl-D-phe-gly-arg-p-nitroaniline was prepared by American Peptide Company, Inc., Sunnyvale, Calif. Factor Xa was obtained from Enzyme Research Laboratories, South Bend Ind., thrombin from Calbiochem, La Jolla, Calif., and trypsin and L-BAPNA from Sigma, St. Louis Mo. The chromogenic substrates S-2765 and S-2238 were purchased from Chromogenix, Sweden."}, "[2]": {"biological_target": "T2, recombinant soluble tissue factor and recombinant human factor VIIa (TF-VIIA) (Homo sapiens, UniProt P08709)", "T2 construct": "conversion of coagulation factor VII to VIIa by Xa; purchased American Diagnostica, Greenwich Conn; (VIIa); soluble TF made in house in E. coli; host or cells: E. coli (soluble TF)", "T2 sequence (P08709 213-466 limits assumed)": "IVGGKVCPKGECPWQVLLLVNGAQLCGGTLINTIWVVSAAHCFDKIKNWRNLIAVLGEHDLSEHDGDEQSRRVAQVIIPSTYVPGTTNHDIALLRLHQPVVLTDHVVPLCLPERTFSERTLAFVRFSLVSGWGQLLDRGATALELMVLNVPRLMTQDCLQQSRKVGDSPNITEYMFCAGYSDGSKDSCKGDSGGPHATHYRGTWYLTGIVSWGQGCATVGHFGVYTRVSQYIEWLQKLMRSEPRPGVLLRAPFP", "T2 sequence (P08709 61-212 limits assumed)": "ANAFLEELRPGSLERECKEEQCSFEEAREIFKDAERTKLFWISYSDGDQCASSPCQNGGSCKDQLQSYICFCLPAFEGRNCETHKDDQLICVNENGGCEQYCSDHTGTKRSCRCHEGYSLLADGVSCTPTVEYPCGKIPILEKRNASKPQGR", "T2 sequence (P13726 33-251 partner limits assumed)": "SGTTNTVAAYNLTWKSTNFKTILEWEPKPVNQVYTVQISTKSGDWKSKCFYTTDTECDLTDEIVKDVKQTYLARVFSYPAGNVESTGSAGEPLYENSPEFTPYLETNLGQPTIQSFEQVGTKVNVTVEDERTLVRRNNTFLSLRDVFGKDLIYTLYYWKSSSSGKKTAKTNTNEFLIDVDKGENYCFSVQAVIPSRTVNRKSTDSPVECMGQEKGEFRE", "assay": "TF-VIIa Assay", "details": "chromogenic substrate N-Methylsulfonyl-D-phe-gly-arg-p-nitroaniline, 60 min room temperature, OD 405 nm", "protocol": "In this assay 100 nM recombinant soluble tissue factor and 2 nM recombinant human factor VIIa are added to a 96 well assay plate containing 0.4 mM of the substrate, N-Methylsulfonyl-D-phe-gly-arg-p-nitroaniline and either inhibitor or buffer (5 mM CaCl2, 50 mM Tris-HCl, pH 8.0, 100 mM NaCl, 0.1% BSA). The reaction, in a final volume of 100 ul is measured immediately at 405 nm to determine background absorbance. The plate is incubated at room temperature for 60 min, at which time the rate of hydrolysis of the substrate is measured by monitoring the reaction at 405 nm for the release of p-nitroaniline. Percent inhibition of TF-VIIa activity is calculated from OD405nm value from the experimental and control sample."}, "[3]": {"biological_target": "human thrombin (Homo sapiens, UniProt P00734)", "assay": "Thrombin Assay", "details": "substrate H-D-Phenylalanyl-L-pipecolyl-L-arginine-p-nitroaniline, 60 min room temperature, OD 405 nm; read-out: Thrombin II IC50", "protocol": "0.28 nM human thrombin and 0.06 mM H-D-Phenylalanyl-L-pipecolyl-L-arginine-p-nitroaniline dihydrochloride are added to a 96-well assay plate containing either inhibitor or buffer (50 mM Tris-HCl, pH 8.0, 100 mM NaCl, 0.1% BSA). The reaction, in a final volume of 100 ul is measured immediately at 405 nm to determine background absorbance. The plate is incubated at room temperature for 60 min, at which time the rate of hydrolysis of the substrate is measured by monitoring the reaction at 405 nm for the release of p-nitroaniline. Percent inhibition of thrombin activity is calculated from OD405nm value from the experimental and control sample."}}, "data": [{"compound": "CC(C)NC1=CC(=O)C(c2ccccc2)=C(CC(=O)NCc2ccc(C(=N)N)cc2)C1=O", "note": "[Example 1]", "values": [{"measurement": "IC50", "setting": "[1]", "value": 110, "unit": "nM"}]}, {"compound": "N=C(N)c1ccc(CNC(=O)CC2=C(c3ccccc3)C(=O)C=C(NCCc3ccccc3)C2=O)cc1", "note": "[Example 2]", "values": [{"measurement": "IC50", "setting": "[2]", "value": 1300, "unit": "nM"}, {"measurement": "IC50", "setting": "[3]", "value": 960, "unit": "nM"}, {"measurement": "IC50", "setting": "[1]", "value": 740, "unit": "nM"}]}]}
